Assay results as given in paper PMC8491704, “Pharmacokinetic study of Tangwang Mingmu granule for the management of diabetic retinopathy based on network pharmacology” (Pharmaceutical Biology, 2021).
Read-outs that look alike come from different tables or passages of the source.

What was measured:
[1] = Pharmacokinetic study in SD rats after oral administration of TWMM (UPLC-QQQ-MS of plasma); assay type: in vivo, Sprague-Dawley (SD) rats; details: oral TWMM 9.6 g/kg
Description: Chromatographic separation was performed using an ACQUITY UPLC H-Class system equipped with a 1.8 μm HSS T3 analytical column (100 mm × 2.1 i.d., Waters Corporation, Milford, USA). […] ESI source was set to negative ionisation mode while the analysis was performed using multiple reaction monitorin. Ion spray voltage (3000 V), capillary temperature (450 °C), and the source parameters of the nine compounds are shown in Table 2.
The data obtained from the UPLC/Q-Orbitrap MS was imported into Xcalibur 4.0 software for analysis. Furthermore, the constituents acquired using GCMS-QP 2010 were profiled by comparison using the National Institute of Standards and Technology (NIST) database. The pharmacokinetic data were processed through MassLynx 4.1, and DAS 2.0 software was used to calculate the pharmacokinetic parameters according to the compartment model.
Six male SD rats (average weight: 220 ± 10 g) were acquired from Beijing Vital-River Laboratory Animal Technology Co., Ltd. All rats were acclimatized to an environmentally controlled laboratory for a week. Following this period, the rats were exposed to fasting conditions for 12 h but were allowed free access to water before the experiment. The rats were orally administered TWMM at a dose of 9.6 g/kg. Blood samples (300 µL) were collected into heparinized centrifuge tubes from the fossa orbitalis at pre-dose and 0.03, 0.08, 0.17, 0.25, 0.5, 1, 2, 4, 8, 12, 24, and 36 h intervals. The samples were immediately centrifuged at 6000 g for 10 min at 4 °C and the supernatants were transferred to clean centrifuge tubes.
Each 100 µL plasma sample was mixed with 20 µL of methanol, 20 µL of IS (5 µg/mL), and 600 µL acetonitrile. The mixtures were centrifuged at 15,000 g for 10 min at 4 °C after being vortexed for 3 min. The obtained supernatants were transferred to clean 1.5 mL centrifuge tubes, followed by evaporation under a milt nitrogen stream. Next, the obtained residues were individually redissolved in 100 µL of methanol and centrifuged at 15,000 g for 10 min at 4 °C after vortexed for 3 min. Lastly, 10 µL of individual supernatant was injected for analysis.

[2] = Stability of QC samples of 8 compounds in rat plasma (25 °C 4 h, autosampler 12 h, three freeze-thaw cycles, −80 °C 7 d); assay type: in vitro ADME
Description: The calibration curves were assessed at eight concentration levels using the correlation coefficient (r). The lower limit of quantification (LLOQ) could fulfil the analytical requirements and achieved reliable accuracy and precision with a signal-to-noise ratio (S/N) ≥ 10. To determine intra- and inter-day precision and accuracy, six replicate quality control (QC) samples at three concentrations were prepared. Inter- and intra-day precision was evaluated by determining relative standard deviation (RSD) values, while accuracy was expressed in terms of the relative error (RE). The extraction recoveries were determined using three concentration levels and calculated by comparing the peak area of extracted samples with post-extracted spiked samples. Subsequently, matrix effects were assessed using the peak area of post-extracted spiked samples contrasted with QC samples at the three concentration levels. The stability test of QC samples at the three concentration levels was as follows: storage at 25 °C for 4 h, storage in an autosampler for 12 h, freeze-thaw cycle for three times, and storage at −80 °C for 7 d.
The stability tests were carried out under three freeze-thaw cycles, at 25 °C for 4 h, in an autosampler for 12 h, and at −80 °C for 7 d.

[3] = QC concentration 1 ng/mL, autosampler 12 h, 4 °C, rat plasma, n = 3
[4] = QC concentration 1 ng/mL, long term 7 day, –80 °C, rat plasma, n = 3
[5] = QC concentration 1 ng/mL, room temperature 25 °C, rat plasma, n = 3
[6] = QC concentration 1 ng/mL, three freeze/thaw cycles, rat plasma, n = 3
[7] = QC concentration 10 ng/mL, autosampler 12 h, 4 °C, rat plasma, n = 3
[8] = QC concentration 10 ng/mL, long term 7 day, –80 °C, rat plasma, n = 3
[9] = QC concentration 10 ng/mL, room temperature 25 °C, rat plasma, n = 3
[10] = QC concentration 10 ng/mL, three freeze/thaw cycles, rat plasma, n = 3
[11] = QC concentration 200 ng/mL, autosampler 12 h, 4 °C, rat plasma, n = 3
[12] = QC concentration 200 ng/mL, long term 7 day, –80 °C, rat plasma, n = 3
[13] = QC concentration 200 ng/mL, room temperature 25 °C, rat plasma, n = 3
[14] = QC concentration 200 ng/mL, three freeze/thaw cycles, rat plasma, n = 3

Compound	t1/2 ([1]; n = 6)	areas under the concentration-time curve (AUC0–∞) [1] [ng·h/mL]	AUC (0–36) ([1]; n = 6) [ng·h/mL]	AUC (0–∞) ([1]; n = 6) [ng·h/mL]	Cmax ([1]; n = 6) [ng/mL]	MRT (0–36) ([1]; n = 6) [h]	MRT (0–∞) ([1]; n = 6) [h]	Tmax ([1]; n = 6) [h]	Stability in rat plasma, Autosampler (12 h, 4 °C), Measured [2, 3] [ng/mL]	Stability in rat plasma, Long term (7 day, –80 °C), Measured [2, 4] [ng/mL]	Stability in rat plasma, Room temperature (4 h, 25 °C), Measured [2, 5] [ng/mL]	Stability in rat plasma, Three freeze/thaw cycles, Measured [2, 6] [ng/mL]	Stability in rat plasma, Autosampler (12 h, 4 °C), Measured [2, 7] [ng/mL]	Stability in rat plasma, Long term (7 day, –80 °C), Measured [2, 8] [ng/mL]	Stability in rat plasma, Room temperature (4 h, 25 °C), Measured [2, 9] [ng/mL]	Stability in rat plasma, Three freeze/thaw cycles, Measured [2, 10] [ng/mL]	Stability in rat plasma, Autosampler (12 h, 4 °C), Measured [2, 11] [ng/mL]	Stability in rat plasma, Long term (7 day, –80 °C), Measured [2, 12] [ng/mL]	Stability in rat plasma, Room temperature (4 h, 25 °C), Measured [2, 13] [ng/mL]	Stability in rat plasma, Three freeze/thaw cycles, Measured [2, 14] [ng/mL]	other results
O=C(/C=C/c1ccc(O)c(O)c1)O[C@@H]1C[C@](O)(C(=O)O)C[C@@H](O)[C@H]1O [Chlorogenic acid]	rapid elimination	–	–	–	–	–	–	–	–	–	–	–	–	–	–	–	–	–	–	–	half-life ([1]; male, Sprague-Dawley, rat, n = 6): 2.71 ± 0.11 h; AUC(0-t) ([1]; male, Sprague-Dawley, rat, n = 6, read-out: AUC (0–36)): 34 ± 4.55 ng·h/mL; Cmax ([1]; male, Sprague-Dawley, rat, n = 6, read-out: Cmax): 16.1 ± 4.17 ng/mL; MRT last ([1]; male, Sprague-Dawley, rat, n = 6, read-out: MRT (0–36)): 4.97 ± 0.71 h; MRT inf ([1]; male, Sprague-Dawley, rat, n = 6, read-out: MRT (0–∞)): 4.97 ± 0.71 h; AUC(0-inf) ([1]; male, Sprague-Dawley, rat, read-out: areas under the concentration-time curve (AUC0–∞)): 34 ± 4.55 ng·h/mL; Tmax ([1]; male, Sprague-Dawley, rat, po, 9.6 g/kg, n = 6, read-out: Tmax): ≤ 1 h; Stability in rat plasma, Three freeze/thaw cycles, Measured ([2]; rat, plasma, 1 ng/mL): 1.1 ± 0.1 ng/mL; Stability in rat plasma, Three freeze/thaw cycles, Measured ([2]; rat, plasma, 10 ng/mL): 9.8 ± 0.8 ng/mL; Stability in rat plasma, Three freeze/thaw cycles, Measured ([2]; rat, plasma, 200 ng/mL): 212.6 ± 19.4 ng/mL; Stability in rat plasma, Room temperature (4 h, 25 °C), Measured ([2]; rat, plasma, 1 ng/mL): 1.2 ± 0.1 ng/mL; Stability in rat plasma, Room temperature (4 h, 25 °C), Measured ([2]; rat, plasma, 10 ng/mL): 9.2 ± 0.6 ng/mL; Stability in rat plasma, Room temperature (4 h, 25 °C), Measured ([2]; rat, plasma, 200 ng/mL): 187.6 ± 4.2 ng/mL; Stability in rat plasma, Autosampler (12 h, 4 °C), Measured ([2]; rat, plasma, 12 h, 1 ng/mL): 0.9 ± 0.1 ng/mL; Stability in rat plasma, Autosampler (12 h, 4 °C), Measured ([2]; rat, plasma, 12 h, 10 ng/mL): 9.1 ± 1.1 ng/mL; Stability in rat plasma, Autosampler (12 h, 4 °C), Measured ([2]; rat, plasma, 12 h, 200 ng/mL): 200.0 ± 14.0 ng/mL; Stability in rat plasma, Long term (7 day, –80 °C), Measured ([2]; rat, plasma, 168 h, 1 ng/mL): 1.0 ± 0.1 ng/mL; Stability in rat plasma, Long term (7 day, –80 °C), Measured ([2]; rat, plasma, 168 h, 10 ng/mL): 10.3 ± 0.5 ng/mL; Stability in rat plasma, Long term (7 day, –80 °C), Measured ([2]; rat, plasma, 168 h, 200 ng/mL): 214.4 ± 10.5 ng/mL
Jaspolyside	29.15 ± 12.65 h	53.4 ± 32.2	46.59 ± 9.58	53.37 ± 32.17	14.25 ± 3.67	11.42 ± 1.29	15.62 ± 10.83	0.38 ± 0.31	–	–	–	–	–	–	–	–	–	–	–	–	Tmax ([1]; n = 6, listed as jaspolyside): ≤ 1 h
COc1ccc(-c2cc(=O)c3c(O)cc(O[C@@H]4O[C@H](CO[C@@H]5O[C@@H](C)[C@H](O)[C@@H](O)[C@H]5O)[C@@H](O)[C@H](O)[C@H]4O)cc3o2)cc1 [Linarin]	2.81 ± 0.21 h	–	12.04 ± 4.72	12.04 ± 4.72	12.78 ± 8.82	4.26 ± 2.67	4.26 ± 2.68	0.16 ± 0.10	1.1 ± 0.1	1.1 ± 0.1	1.0 ± 0.1	1.0 ± 0.0	10.2 ± 0.6	10.2 ± 0.4	11.9 ± 0.1	11.6 ± 0.5	208.5 ± 2.0	221.0 ± 11.2	223.3 ± 5.0	219.4 ± 13.8	Tmax ([1]; n = 6, listed as linarin): ≤ 1 h; t1/2 ([1]; n = 6, listed as linarin): rapid elimination
CC=C1[C@H](O[C@@H]2O[C@H](CO)[C@@H](O)[C@H](O)[C@H]2O)OC=C(C(=O)OC)[C@H]1CC(=O)OC[C@H]1O[C@@H](OCCc2ccc(O)cc2)[C@H](O)[C@@H](O)[C@@H]1O (stereo in doubt) [Specnuezhenide]	20.27 ± 25.00 h	57.2 ± 30.2	48.62 ± 19.41	57.19 ± 30.25	13.33 ± 4.61	11.02 ± 5.63	19.29 ± 16.60	0.46 ± 0.29	1.1 ± 0.1	1.0 ± 0.1	1.0 ± 0.1	1.0 ± 0.0	9.8 ± 0.6	10.3 ± 0.6	10.7 ± 0.2	11.5 ± 0.6	198.2 ± 2.6	225.6 ± 9.0	212.7 ± 8.4	219.0 ± 8.4	Tmax ([1]; n = 6, listed as specnuezhenide): ≤ 1 h
